In data set [1] the target is T1, RXRα protein (ligand binding domain (LBD)) [RXRα蛋白质(配体结合域(LBD))] (Homo sapiens, UniProt P19793).
T1 construct: 关于RXRα蛋白质(配体结合域(LBD)),将Active Motif社制的物质以100nM使用; purchased Active Motif
T1 sequence (P19793 227-458 limits assumed): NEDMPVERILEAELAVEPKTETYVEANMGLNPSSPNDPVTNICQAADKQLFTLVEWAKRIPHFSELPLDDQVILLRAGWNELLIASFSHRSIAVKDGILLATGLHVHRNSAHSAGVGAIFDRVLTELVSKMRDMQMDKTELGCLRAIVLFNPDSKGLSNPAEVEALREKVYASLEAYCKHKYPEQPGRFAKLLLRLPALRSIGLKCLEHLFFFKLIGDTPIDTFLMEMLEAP
As to the kind of experiment: RXR binding of RXR ligands evaluated with compound 10 as fluorescent probe (Example 13). The note with it: RXRα-LBD 100 nM, compound 10 100 nM; from EC50 by Cheng-Prusoff equation.

In data set [2] the target is T1, RXRα protein (ligand binding domain (LBD)) [RXRα蛋白质(配体结合域(LBD))]. As to the kind of experiment: Detection of RXR binding of RXR ligands with compound 44 (Example 15). The note with it: test compound 1 μM, compound 44 30 nM, RXRα-LBD 100 nM.
Data set [3] concerns the target T2, full-length RXRα protein [全长RXRα蛋白质] (Homo sapiens, UniProt P19793).
T2 construct: 全长RXRα蛋白质使用3μM
T2 sequence (P19793 1-462): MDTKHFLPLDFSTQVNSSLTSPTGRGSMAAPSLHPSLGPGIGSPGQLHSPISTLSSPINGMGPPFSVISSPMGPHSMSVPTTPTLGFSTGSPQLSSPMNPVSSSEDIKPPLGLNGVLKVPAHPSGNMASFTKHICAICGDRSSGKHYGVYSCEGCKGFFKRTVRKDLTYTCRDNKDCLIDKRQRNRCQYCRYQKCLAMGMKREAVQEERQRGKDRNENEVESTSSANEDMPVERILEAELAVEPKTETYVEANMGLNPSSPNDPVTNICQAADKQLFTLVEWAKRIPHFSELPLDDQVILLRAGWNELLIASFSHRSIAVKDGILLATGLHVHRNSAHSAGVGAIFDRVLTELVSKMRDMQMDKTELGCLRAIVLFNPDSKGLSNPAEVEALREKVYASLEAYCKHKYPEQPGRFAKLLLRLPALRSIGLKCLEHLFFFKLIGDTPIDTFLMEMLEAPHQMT
As to the kind of experiment: Combined assay: RXR activation by fluorescence polarization of fluorescein-PGC1a coactivator peptide (Example 16). The note with it: test compound 10 μM, full-length RXRα 3 μM, compound 10 3 μM, fluorescein-PGC1a 30 nM. The data set is classed as biochemical. A general note: Fluorescence polarisation rises when a labelled molecule tumbles more slowly, as on binding a larger partner.

Data set [4] is described as follows: Blood concentration after oral administration to mice (Example 17). The note with it: mouse (male ICR, 6 weeks). In kind it is in vivo.
A further data set has as its system NFκB. The note with it: LPS 1 ng/mL, 24 h; relative to LPS without test compound as 100%.
The test system of data set [5] is retinoid X receptor (RXR) [类视黄醇X受体]. Kind of data set: Luciferase reporter gene assay for RXR transcriptional activation (Example 9). In kind it is cell-based. Particulars: COS-1 cells; for RXR agonist activity: relative to transcriptional activity with 1 μM bexarotene set to 1.

For orientation: Ki means the equilibrium dissociation constant of an inhibitor or competing ligand from its target.

Structures are written as SMILES.

`Cc1cc2c(cc1-n1c(C(F)(F)F)nc3cc(C(=O)O)ccc31)C(C)(C)CCC2(C)C` [CBTF-PMN]: the Ki in data set [1] came out at 73 nM.
`CCN(c1ccc(C(=O)O)cn1)c1cc(OCC(C)C)c(C(C)C)cc1/C=C/c1ccccc1` [NEt-SB]: the “change of fluorescence intensity of compound 44 by test compound” value in data set [2] was “荧光强度减少”.
Consider `CCCCCCOc1cc2c(cc1N(C)c1ncc(C(=O)O)cn1)C(C)(C)CCC2(C)C` [PA452], for which the “fluorescence polarization of fluorescein-PGC1a” value in data set [3] is listed as “减少”. Besides, the Ki in data set [1] was 108 nM.
The molecule `Cc1cc2c(cc1-c1cc3cc(C(=O)O)c(=O)oc3cc1O)C(C)(C)CCC2(C)C` [化合物10] had a concentration at 0.5 h in data set [4] (in vivo, 30 mg/kg oral, 0.5 h after administration) of about 3000 nM. For the same molecule, the disappearance from blood entry in data set [4] (30 mg/kg oral, 0.5, 1, 3 and 6 h) is on record as “时间依赖性地从血液中消失”. In addition, in the data set on NFκB, the “SEAP activity / inhibitory activity on NFκB transcriptional activity” value is on record as “抑制SEAP活性,显示对于NFκB的抑制活性”.
As for `COc1cc2c(cc1-c1cc3cc(C(=O)O)c(=O)oc3cc1O)C(C)(C)CCC2(C)C` [化合物23a], the RXR agonist activity result in data set [5] was “确认到RXR激动剂活性”.
The same measure, in the same setting: next, `CCCOc1cc2c(cc1-c1cc3cc(C(=O)O)c(=O)oc3cc1O)C(C)(C)CCC2(C)C` [化合物23b]: “确认到RXR激动剂活性”.
On to `CCCCCOc1cc2c(cc1-c1cc3cc(C(=O)O)c(=O)oc3cc1O)C(C)(C)CCC2(C)C` [化合物23c], for which the RXR antagonist activity result in data set [5] (in the presence of the RXR agonist NEt-TMN (printed for compound 44; others tested similarly)) is “确认到RXR拮抗剂活性”.
As to `Cc1cc(OC(C)C)c(C(C)C)cc1-c1cc2cc(C(=O)O)c(=O)oc2cc1O` [化合物30], the RXR agonist activity result in data set [5] was “确认到RXR激动剂活性”.
